Experimental data published in PubChem BioAssay (NCI).
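Method: 48-hour compound exposure of cells in 96-well plates, five concentrations, linear interpolation of endpoints. The concentration for full growth arrest is given as TGI.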

Experiments:
Assay in all cases: growth of human tumour cells (NCI), 48 h
[1] = test system: LOX IMVI melanoma
[2] = test system: HL-60(TB) leukemia
[3] = test system: NCI-H226 lung
[4] = test system: SF-295 CNS
[5] = test system: OVCAR-4 ovarian
[6] = test system: HS 578T breast
[7] = test system: SK-MEL-28 melanoma
[8] = test system: SK-MEL-2 melanoma
[9] = test system: OVCAR-5 ovarian
[10] = test system: SK-MEL-5 melanoma
[11] = test system: COLO 205 colon
[12] = test system: UACC-62 melanoma
[13] = test system: MDA-MB-435
[14] = test system: A498 renal
[15] = test system: HCC-2998 colon
[16] = test system: RXF 393 renal
[17] = test system: EKVX NSCLC
[18] = test system: NCI-H522 lung
[19] = test system: BT-549 breast

| SMILES | TGI [1] [µM] | TGI [2] [µM] | TGI [3] [µM] | TGI [4] [µM] | TGI [5] [µM] | TGI [6] [µM] | TGI [7] [µM] | TGI [8] [µM] | TGI [9] [µM] | TGI [10] [µM] | TGI [11] [µM] | TGI [12] [µM] | TGI [13] [µM] | TGI [14] [µM] | TGI [15] [µM] | TGI [16] [µM] | TGI [17] [µM] | TGI [18] [µM] | TGI [19] [µM] |
| --- | --- | --- | --- | --- | --- | --- | --- | --- | --- | --- | --- | --- | --- | --- | --- | --- | --- | --- | --- |
| [N-]=[N+]=NCc1nc(N)c2c3c(sc2n1)CCCC3 | 2.13 | > 100 | 5.97 | 27.9 | 1.42 | 14.9 | 36.3 | 27.9 | 10.1 | 3.41 | > 39.3 | 23.6 | 32 | 45 | 4.76 | 19.3 | 4.95 | – | – |
| Cn1c2c(c3ccccc31)CCN1C(=O)CN(C(=O)C3CCCCC3)CC21 (stereo unspecified) | > 100 | > 100 | > 100 | > 100 | > 100 | > 100 | > 100 | > 100 | > 100 | > 100 | > 100 | > 100 | > 100 | – | > 100 | > 100 | > 100 | > 100 | – |
| Cc1ccc(Cl)c2c(=O)c3ccc(N)cc3sc12 | – | 20.4 | 48.4 | 31.8 | – | 33.6 | – | 44.6 | > 100 | 37.7 | 37.5 | 30.8 | – | 36.8 | – | 59.3 | 52.8 | – | > 100 |
| CC1(C)OC[C@@H]([C@H](O)C2C=CC(=O)S2)O1 (stereo partly specified) | 31.7 | > 100 | > 100 | > 100 | > 100 | – | – | 77.1 | > 100 | 45.7 | 40.5 | 35.9 | > 100 | 51.1 | 33.5 | 53.5 | > 100 | – | 47.5 |
| CCOC(=O)NNC(=O)NCCCCNC(=O)NNC(=O)OCC | > 100 | > 100 | > 100 | > 100 | – | > 100 | > 100 | > 100 | > 100 | > 100 | > 100 | > 100 | > 100 | > 100 | – | > 100 | > 100 | > 100 | > 100 |
| COC(=O)C(C(=O)Cc1ccccc1[N+](=O)[O-])C(=O)OC | > 100 | > 100 | > 100 | > 100 | > 100 | – | > 100 | > 100 | – | > 100 | > 100 | > 100 | – | – | > 100 | > 100 | > 100 | > 100 | – |
| Cc1cc(C(F)(F)F)cc(-n2nc(NS(=O)(=O)c3cc(C)c(Cl)cc3S)nc2N)n1 | > 100 | 77.8 | > 100 | > 100 | > 100 | > 100 | > 100 | > 100 | – | > 100 | > 100 | > 100 | > 100 | 56.1 | > 100 | > 100 | > 100 | 91.5 | – |
